Data on 5 compounds can be found in paper PMC3433420 (PLoS ONE, 2012).

In one test the target is T1, PIK3R3-C SH2 domain (Homo sapiens, UniProt Q92569).
T1 construct: thioredoxin; made in house; host or cells: E. coli BL21(DE3)pLysS
The experiment in a line: biochemical. It is filed as binding. The following applies: high-confidence ErbB interactions.

In another test the target is T2, SHC1-PTB domain (Homo sapiens, UniProt P29353).
T2 sequence (P29353 156-339 limits assumed): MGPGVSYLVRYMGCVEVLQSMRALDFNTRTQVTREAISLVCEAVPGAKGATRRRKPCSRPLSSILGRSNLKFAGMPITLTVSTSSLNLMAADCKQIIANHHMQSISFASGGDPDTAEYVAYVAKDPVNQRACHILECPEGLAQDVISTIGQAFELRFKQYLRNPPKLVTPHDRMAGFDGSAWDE
The experiment in a line: FP saturation binding assay.

For the next test, the target named is T3, SH2 and PTB domains (Homo sapiens, UniProt Q08881).
T3 construct: thioredoxin; made in house; host or cells: BL21(DE3)pLysS E. coli
T3 sequence (Q08881 1-620): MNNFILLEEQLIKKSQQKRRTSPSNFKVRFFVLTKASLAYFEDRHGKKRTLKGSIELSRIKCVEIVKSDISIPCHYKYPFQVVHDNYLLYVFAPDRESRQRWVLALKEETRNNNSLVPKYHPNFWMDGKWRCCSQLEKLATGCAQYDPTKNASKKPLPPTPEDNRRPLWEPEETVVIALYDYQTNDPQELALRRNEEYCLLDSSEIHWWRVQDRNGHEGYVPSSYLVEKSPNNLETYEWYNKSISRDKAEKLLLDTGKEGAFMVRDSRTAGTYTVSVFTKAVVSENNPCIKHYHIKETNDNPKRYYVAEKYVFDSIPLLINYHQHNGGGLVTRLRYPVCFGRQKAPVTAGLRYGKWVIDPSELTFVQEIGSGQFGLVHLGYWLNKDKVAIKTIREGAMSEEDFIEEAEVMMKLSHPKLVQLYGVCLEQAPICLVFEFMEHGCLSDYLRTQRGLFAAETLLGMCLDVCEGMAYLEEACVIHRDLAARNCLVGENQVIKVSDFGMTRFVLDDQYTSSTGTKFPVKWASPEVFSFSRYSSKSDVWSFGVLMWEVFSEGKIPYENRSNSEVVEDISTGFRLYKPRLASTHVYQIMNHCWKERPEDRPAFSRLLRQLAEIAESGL
The test is described as follows: In-house protein microarrays (with or without 5 mM DTT), protein named per line. The following applies: protein ITK. The class given is binding. The essentials: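 KD values come from rhodamine fluorescence of duplicate spots after subtraction of a thioredoxin control. Domains were printed at ~40 µM on aldehyde slides, blocked 1 h at room temperature in pH 7.8 HEPES/KCl buffer with 5 mM DTT and 1% BSA, then peptide-probed.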

Residues, ends and D or L forms follow the SMILES beside them.

`CC(C)C[C@H](NC(=O)[C@H](Cc1ccc(OP(=O)(O)O)cc1)NC(=O)[C@H](CCC(=O)O)NC(=O)[C@H](CCC(=O)O)NC(=O)[C@H](C)NC(=O)[C@@H](N)CC(=O)O)C(=O)N[C@H](C(=O)N1CCC[C@H]1C(=O)N[C@@H](CCC(N)=O)C(=O)N[C@@H](CCC(N)=O)C(=O)NCC(=O)N[C@@H](Cc1ccccc1)C(=O)N[C@@H](CC(=O)O)C(=O)O)C(C)C` [ErbB2 1023 13-mer] (HELM PEPTIDE1{D.A.E.E.[O=C([C@H](Cc1ccc(OP(=O)(O)O)cc1)N[*:1])[*:2]].L.V.P.Q.Q.G.F.D}$$$$V2.0) yielded an equilibrium dissociation constant (Kd) at PIK3R3-C SH2 domain (Protein PIK3R3-C, FP saturation binding, mean over replicate hits) of 5.8 µM.

Turning to `CC(C)C[C@H](NC(=O)[C@H](CC(N)=O)NC(=O)[C@@H](N)CC(=O)O)C(=O)N[C@@H](Cc1ccc(O)cc1)C(=O)N[C@@H](Cc1ccc(OP(=O)(O)O)cc1)C(=O)N[C@@H](Cc1c[nH]c2ccccc12)C(=O)N[C@@H](CC(=O)O)C(=O)N[C@@H](CCC(N)=O)C(=O)N[C@@H](CC(=O)O)C(=O)N1CCC[C@H]1C(=O)N1CCC[C@H]1C(=O)N[C@@H](CCC(=O)O)C(=O)N[C@@H](CC(=O)O)C(=O)O` [ErbB2 1222 13-mer] (HELM PEPTIDE1{D.N.L.Y.[O=C([C@H](Cc1ccc(OP(=O)(O)O)cc1)N[*:1])[*:2]].W.D.Q.D.P.P.E.D}$$$$V2.0), binding on SHC1-PTB domain was characterised by a dissociation constant (Kd) of 2.96 µM.

For the compound `CC(C)C[C@H](NC(=O)[C@@H]1CCCN1C(=O)[C@H](C)NC(=O)[C@@H](NC(=O)[C@H](Cc1ccc(OP(=O)(O)O)cc1)NC(=O)CNC(=O)[C@H](CC(=O)O)NC(=O)[C@@H](NC(=O)[C@@H](N)CCC(=O)O)[C@@H](C)O)C(C)C)C(=O)N[C@H](C(=O)N[C@@H](CS)C(=O)N[C@@H](CO)C(=O)N[C@@H](CC(=O)O)C(=O)O)[C@@H](C)O` [ErbB2 pY1127], the “Kd” value on SH2 and PTB domains (PM assay replicate # 39336, array fabrication # 39329) worked out at 0.80 µM; at SH2 and PTB domains (PM assay replicate # 39337, array fabrication # 39329) it was 2.58 µM.

Regarding `CSCC[C@H](NC(=O)[C@H](Cc1ccc(OP(=O)(O)O)cc1)NC(=O)[C@H](CCC(=O)O)NC(=O)[C@H](Cc1ccc(O)cc1)NC(=O)CNC(=O)[C@@H](N)CC(C)C)C(=O)N[C@@H](CC(=O)O)C(=O)N[C@H](C(=O)NCC(=O)N[C@@H](CO)C(=O)N[C@@H](CC(=O)O)C(=O)N[C@@H](CC(C)C)C(=O)N[C@@H](CC(=O)O)C(=O)O)C(C)C` [ErbB3 1224 13-mer] (HELM PEPTIDE1{L.G.Y.E.[O=C([C@H](Cc1ccc(OP(=O)(O)O)cc1)N[*:1])[*:2]].M.D.V.G.S.D.L.D}$$$$V2.0), the Kd at PIK3R3-C SH2 domain (protein PIK3R3-C, FP, mean of replicate hits) is 6.11 µM; at SHC1-PTB domain it was 5.27 µM.

`CCN(CC)c1ccc2c(-c3ccc(C(=O)N[C@@H](CC(N)=O)C(=O)NCC(=O)N4CCC[C@H]4C(=O)N4CCC[C@H]4C(=O)N[C@@H](CCCCN)C(=O)N[C@@H](C)C(=O)N[C@@H](CCC(=O)O)C(=O)N[C@@H](CC(=O)O)C(=O)N[C@@H](CCC(=O)O)C(=O)N[C@@H](Cc4ccc(OP(=O)(O)O)cc4)C(=O)N[C@H](C(=O)N[C@@H](CC(N)=O)C(=O)N[C@@H](CCC(=O)O)C(=O)N4CCC[C@H]4C(=O)N[C@@H](CC(C)C)C(=O)N[C@@H](Cc4ccc(O)cc4)C(=O)N[C@@H](CC(C)C)C(=O)N[C@@H](CC(=O)O)C(=O)O)C(C)C)cc3C(=O)[O-])c3ccc(=[N+](CC)CC)cc-3oc2c1` [ErbB4 1202 (18-mer)] (HELM PEPTIDE1{[CCN(CC)c1ccc2c(-c3ccc(C(=O)[*:2])cc3C(=O)[O-])c3ccc(=[N+](CC)CC)cc-3oc2c1].N.G.P.P.K.A.E.D.E.[O=C([C@H](Cc1ccc(OP(=O)(O)O)cc1)N[*:1])[*:2]].V.N.E.P.L.Y.L.D}$$$$V2.0): at SH2 and PTB domains (PM assay replicate # 39307, array fabrication # 39286), the “Kd” value worked out at 0.72 µM.

As a reminder, the Kd is the constant that tells how readily two partners part at equilibrium. A high value points to lower affinity.
